Laboratory results taken from patent US10815275B2, “Antimicrobial peptoids with improved selectivity and use thereof” (priority 2018, dated 2020).
≈ marks a conversion by molar mass, not a printed value. Non-standard residues stand in square brackets, D forms with d. Residues, ends and D or L forms follow the SMILES beside them. Nspe = C[C@H](NCC(=O)O)c1ccccc1; Nphe = O=C(O)CNCc1ccccc1; Nlys = NCCCCNCC(=O)O

Tests used:
E. coli strain ATCC25922 = assay type: cell-based; settings: for MBC E. coli: ATCC25922; for MIC E. coli: ATCC25922, 18 h
Procedure: (§1) In order to measure antimicrobial activity of the peptoids, Gram-positive S. aureus strain KCTC1621, or Gram-negative E. coli strain ATCC25922 was treated with the peptoids prepared in Preparation Example 1, and minimum inhibitory concentrations were measured. Peptoid NOS. 1 and 2 are already known peptoids and were used for the purpose of making a comparison with novel peptoids in terms of antimicrobial activity.
(§2) Specifically, S. aureus strain KCTC1621 or E. coli strain ATCC25922 was inoculated into Mueller Hinton Broth (MHB2) liquid medium on which cations were adjusted, cultured at a temperature of 37° C. for 18 hours, and then subcultured for 4 hours. Thereafter, the strains were diluted with MHB2 liquid medium containing 0.2% bovine serum albumin and 0.01% acetic acid so that each bacterial number was 2×10^5 colony-forming units (CFU) per 1 mL, and dispensed into 96-well microtiter plates at 100 μL each. A peptoid stock which is 40-fold more concentrated than a concentration to be tested was added to each well at 2.5 μL or lower so that the peptoid stock was 2-fold serially diluted using sterile water. Thereafter, the plates were incubated at a temperature of 37° C. for 18 hours.
(§3) Thereafter, absorbance was measured at a wavelength of 600 nm using a microplate reader (Bio-Rad). The lowest peptoid concentration that completely suppresses growth of microorganisms was measured by a minimum inhibitory concentration (MIC) and a minimum bactericidal concentration (MBC), and the measurement results are shown in Table 5 below. Each of the MIC values was calculated as an average value of numerical values obtained through three independent experiments.

[1] = system: S. aureus strain KCTC1621; assay type: cell-based; settings: for MBC S. aureus: KCTC1621; for MIC S. aureus: KCTC1621, 18 h
Procedure: as §1, §2, §3

red blood cells = experiment: Hemolytic activity on red blood cells; assay type: cell-based, mouse
Procedure: In order to identify, through red blood cell hemolytic activity in mice, whether the peptoids synthesized in Preparation Example 1 are cytotoxic, red blood cells isolated from 10 mL of mouse blood were washed three times with phosphate-buffered saline (PBS, mixed solution of 35 mM phosphate buffer/150 mM NaCl, pH 7.4), and then centrifuged at a centrifugal force of 1,000 ×g for 10 minutes. A 10% (v/v) red blood cell solution diluted with PBS was dispensed into a 96-well microtiter plate at 150 μL each, and then a peptide solution was added at 50 μL each. Thereafter, the 96-well microtiter plate was incubated at a temperature of 37° C. for 1 hour.
The incubated 96-well microtiter plate was centrifuged at a centrifugal force of 1,000×g for 5 minutes. Thereafter, supernatant was taken at 100 μL each and transferred to a new 96-well microtiter plate. Then, absorbance at a wavelength of 540 nm was measured (Table 6).
In this case, a value obtained in a case of being treated with 0.1% (v/v) Triton X-100 was set as 100% hemolysis, and hemolytic activity (degree of cell destruction) of the peptoids was calculated using the following Equation 1. In the Equation 1, A is absorbance of the peptoid solution at a wavelength of 540 nm, B is absorbance of 0.1% Triton X-100 at a wavelength of 540 nm, and C is absorbance of the PBS solution at a wavelength of 540 nm. In this case, Peptoid NO. […] Degree of cell destruction (% hemolysis)=(A−C)/(B−C)[…] [Equation 1]
In Table 6, HD10 means a peptoid concentration which causes 10% hemolysis of red blood cells, and HD50 means a peptoid concentration which causes 50% hemolysis of red blood cells. In addition, Hmax is a hemolysis rate (%) at 200 μM which is the highest peptoid concentration used in the experiment.
Hemolytic activity of Peptoid NOS. 1, 18 to 23, and the peptide Pexiganan was measured in the same manner as in Experimental Example 2.

E. coli = experiment: Selectivity analysis, HD10 divided by MIC for E. coli; settings: HD10 of Table 6 divided by MIC for E. coli ATCC25922
Procedure: In order to identify changes in selectivity depending on alteration of degree of folding in helical structure of peptoids, selectivity of each peptoid was calculated using the resultant values measured in the Experimental Examples 1 and 2. The selectivity was obtained by dividing the HD10 value by the minimum inhibitory concentration for E. coli (Table 8).

Row | MIC E. coli (E. coli strain ATCC25922) | MIC S. aureus [1] | Selectivity [HD10/MIC (E. coli)] (E. coli) | SMILES | MBC E. coli (E. coli strain ATCC25922) | MBC S. aureus [1] | HD50 (red blood cells) | HD10 (red blood cells)
1 | 12.5 µM (≈ 21.5 µg/mL) | 3.1 µM (≈ 5.34 µg/mL) | 4.3 | C[C@@H](c1ccccc1)N(CC(=O)N(CC(N)=O)Cc1ccccc1)C(=O)CN(CCCCN)C(=O)CN(Cc1ccccc1)C(=O)CN(Cc1ccccc1)C(=O)CN(CCCCN)C(=O)CN(Cc1ccccc1)C(=O)CN(Cc1ccccc1)C(=O)CN(CCCCN)C(=O)CN(Cc1ccccc1)C(=O)CN(Cc1ccccc1)C(=O)CNCCCCN [compound 9] (H-[Nlys][Nphe][Nphe][Nlys][Nphe][Nphe][Nlys][Nphe][Nphe][Nlys][Nspe][Nphe]-NH2) | 25 µM (≈ 43 µg/mL) | 3.1 µM (≈ 5.34 µg/mL) | > 200 | 54.4
2 | 12.5 µM (≈ 21.5 µg/mL) | 3.1 µM (≈ 5.34 µg/mL) |  | C[C@@H](c1ccccc1)N(CC(N)=O)C(=O)CN(Cc1ccccc1)C(=O)CN(CCCCN)C(=O)CN(Cc1ccccc1)C(=O)CN(Cc1ccccc1)C(=O)CN(CCCCN)C(=O)CN(Cc1ccccc1)C(=O)CN(Cc1ccccc1)C(=O)CN(CCCCN)C(=O)CN(Cc1ccccc1)C(=O)CN(Cc1ccccc1)C(=O)CNCCCCN [compound 10] | 25 µM (≈ 43 µg/mL) | 3.1 µM (≈ 5.34 µg/mL) | > 200 | 103.3
3 |  | 1.6 µM (≈ 2.82 µg/mL) |  | C[C@@H](c1ccccc1)N(CC(=O)N(CCCCN)CC(=O)N(CC(=O)N(CC(=O)N(CCCCN)CC(=O)N(CC(=O)N(CC(N)=O)Cc1ccccc1)Cc1ccccc1)[C@@H](C)c1ccccc1)[C@@H](C)c1ccccc1)C(=O)CN(C(=O)CN(CCCCN)C(=O)CN(Cc1ccccc1)C(=O)CN(Cc1ccccc1)C(=O)CNCCCCN)[C@@H](C)c1ccccc1 [compound 16] (H-[Nlys][Nphe][Nphe][Nlys][Nspe][Nspe][Nlys][Nspe][Nspe][Nlys][Nphe][Nphe]-NH2) | 6.3 µM (≈ 11.1 µg/mL) | 3.1 µM (≈ 5.47 µg/mL) | > 200 | 53.0
4 | 12.5 µM (≈ 21.9 µg/mL) | 1.6 µM (≈ 2.8 µg/mL) | 4.3 | C[C@@H](c1ccccc1)N(CC(N)=O)C(=O)CN(C(=O)CN(CCCCN)C(=O)CN(Cc1ccccc1)C(=O)CN(Cc1ccccc1)C(=O)CN(CCCCN)C(=O)CN(Cc1ccccc1)C(=O)CN(Cc1ccccc1)C(=O)CN(CCCCN)C(=O)CN(Cc1ccccc1)C(=O)CN(C(=O)CNCCCCN)[C@@H](C)c1ccccc1)[C@@H](C)c1ccccc1 [compound 14] | 12.5 µM (≈ 21.9 µg/mL) | 1.6 µM (≈ 2.8 µg/mL) | 199.6 | 53.9
5 | 12.5 µM (≈ 21.7 µg/mL) | 3.1 µM (≈ 5.38 µg/mL) | 6.4 | C[C@@H](c1ccccc1)N(CC(N)=O)C(=O)CN(Cc1ccccc1)C(=O)CN(CCCCN)C(=O)CN(Cc1ccccc1)C(=O)CN(Cc1ccccc1)C(=O)CN(CCCCN)C(=O)CN(Cc1ccccc1)C(=O)CN(Cc1ccccc1)C(=O)CN(CCCCN)C(=O)CN(Cc1ccccc1)C(=O)CN(C(=O)CNCCCCN)[C@@H](C)c1ccccc1 [compound 12] | 25 µM (≈ 43.4 µg/mL) | 3.1 µM (≈ 5.38 µg/mL) | > 200 | 79.7

The remaining lines, values behind:

Row | SMILES | MIC E. coli (E. coli strain ATCC25922) | MIC S. aureus [1] | Selectivity [HD10/MIC (E. coli)] (E. coli) | MBC E. coli (E. coli strain ATCC25922) | MBC S. aureus [1] | HD50 (red blood cells) | HD10 (red blood cells)
6 | C[C@@H](c1ccccc1)N(CC(=O)N(CC(=O)N(CCCCN)CC(=O)N(CC(=O)N(CC(N)=O)Cc1ccccc1)Cc1ccccc1)Cc1ccccc1)C(=O)CN(CCCCN)C(=O)CN(Cc1ccccc1)C(=O)CN(Cc1ccccc1)C(=O)CN(CCCCN)C(=O)CN(Cc1ccccc1)C(=O)CN(Cc1ccccc1)C(=O)CNCCCCN [compound 7] (H-[Nlys][Nphe][Nphe][Nlys][Nphe][Nphe][Nlys][Nspe][Nphe][Nlys][Nphe][Nphe]-NH2) | 12.5 µM (≈ 21.5 µg/mL) | 3.1 µM (≈ 5.34 µg/mL) |  | 25 µM (≈ 43 µg/mL) | 3.1 µM (≈ 5.34 µg/mL) | > 200 | 
7 | C[C@@H](c1ccccc1)N(CC(=O)N(CC(=O)N(CCCCN)CC(=O)N(CC(=O)N(CC(=O)N(CCCCN)CC(=O)N(CC(=O)N(CC(=O)N(CCCCN)CC(=O)N(CC(=O)N(CC(N)=O)Cc1ccccc1)Cc1ccccc1)Cc1ccccc1)Cc1ccccc1)Cc1ccccc1)Cc1ccccc1)Cc1ccccc1)C(=O)CNCCCCN [compound 3] (H-[Nlys][Nspe][Nphe][Nlys][Nphe][Nphe][Nlys][Nphe][Nphe][Nlys][Nphe][Nphe]-NH2) | 25 µM (≈ 43 µg/mL) | 3.1 µM (≈ 5.34 µg/mL) | 4.5 | 25 µM (≈ 43 µg/mL) | 3.1 µM (≈ 5.34 µg/mL) | > 200 | 112.7
8 | C[C@@H](c1ccccc1)N(CC(=O)N(CCCCN)CC(=O)N(CC(=O)N(CC(N)=O)Cc1ccccc1)Cc1ccccc1)C(=O)CN(Cc1ccccc1)C(=O)CN(CCCCN)C(=O)CN(Cc1ccccc1)C(=O)CN(Cc1ccccc1)C(=O)CN(CCCCN)C(=O)CN(Cc1ccccc1)C(=O)CN(Cc1ccccc1)C(=O)CNCCCCN [compound 8] (H-[Nlys][Nphe][Nphe][Nlys][Nphe][Nphe][Nlys][Nphe][Nspe][Nlys][Nphe][Nphe]-NH2) | 12.5 µM (≈ 21.5 µg/mL) | 3.1 µM (≈ 5.34 µg/mL) | 7.1 | 25 µM (≈ 43 µg/mL) | 3.1 µM (≈ 5.34 µg/mL) | > 200 | 88.5
9 | C[C@@H](c1ccccc1)N(CC(=O)N(CC(=O)N(CCCCN)CC(=O)N(CC(=O)N(CC(=O)N(CCCCN)CC(=O)N(CC(=O)N(CC(N)=O)Cc1ccccc1)Cc1ccccc1)Cc1ccccc1)Cc1ccccc1)Cc1ccccc1)C(=O)CN(CCCCN)C(=O)CN(Cc1ccccc1)C(=O)CN(Cc1ccccc1)C(=O)CNCCCCN [compound 5] (H-[Nlys][Nphe][Nphe][Nlys][Nspe][Nphe][Nlys][Nphe][Nphe][Nlys][Nphe][Nphe]-NH2) | 12.5 µM (≈ 21.5 µg/mL) | 3.1 µM (≈ 5.34 µg/mL) |  | 12.5 µM (≈ 21.5 µg/mL) | 3.1 µM (≈ 5.34 µg/mL) | 195.0 | 
10 | C[C@@H](c1ccccc1)N(CC(=O)N(CCCCN)CC(=O)N(CC(=O)N(CC(=O)N(CCCCN)CC(=O)N(CC(=O)N(CC(N)=O)Cc1ccccc1)Cc1ccccc1)Cc1ccccc1)Cc1ccccc1)C(=O)CN(Cc1ccccc1)C(=O)CN(CCCCN)C(=O)CN(Cc1ccccc1)C(=O)CN(Cc1ccccc1)C(=O)CNCCCCN [compound 6] (H-[Nlys][Nphe][Nphe][Nlys][Nphe][Nspe][Nlys][Nphe][Nphe][Nlys][Nphe][Nphe]-NH2) | 12.5 µM (≈ 21.5 µg/mL) | 3.1 µM (≈ 5.34 µg/mL) |  | 25 µM (≈ 43 µg/mL) | 3.1 µM (≈ 5.34 µg/mL) | 185.4 | 101.4
